Measured values taken from PubChem BioAssay AID248 (DTP/NCI, 2004).
Where “and” joins values, the source holds several entries; their conditions need not be identical. Equal values may be shown once. Inconclusive results and toxic doses are left out. Cut-off read from the data, not from the text of the source: active = T/C of 150% or more; inactive = T/C below 125%.

Tested on: L1210 leukemia ip in BDF1 mice, survival T/C
Assay: NCI In Vivo Anticancer Drug Screen. Data for tumor model L1210 Leukemia (intraperitoneal) in B6D2F1 (BDF1) mice
Conditions: endpoint: mean survival time, higher = longer survival
In short: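 Antitumor effect is assessed in tumor-bearing animals. Survival in the compound arm is compared with a vehicle-dosed control arm and expressed as their quotient.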

[1] = dose: 50.0 mg/kg/injection, schedule: Q01DX009 (ip), vehicle: saline with Tween-80
[2] = dose: 12.5 mg/kg/injection, schedule: Q01DX009 (ip), vehicle: saline
[3] = dose: 25.0 mg/kg/injection, schedule: Q04DX003 (ip), vehicle: saline
[4] = dose: 100.0 mg/kg/injection, schedule: Q01DX009 (ip), vehicle: saline with Tween-80
[5] = dose: 100.0 mg/kg/injection, schedule: Q04DX003 (ip), vehicle: saline with Tween-80
[6] = dose: 200.0 mg/kg/injection, schedule: Q04DX003 (ip), vehicle: saline with Tween-80
[7] = dose: 100.0 mg/kg/injection, schedule: Q01DX009 (ip), vehicle: saline
[8] = dose: 200.0 mg/kg/injection, schedule: Q01DX009 (ip), vehicle: saline
[9] = dose: 400.0 mg/kg/injection, schedule: Q01DX009 (ip), vehicle: saline
[10] = dose: 100.0 mg/kg/injection, schedule: Q04DX003 (ip), vehicle: Klucel (hydroxypropylcellulose) (HPC)
[11] = dose: 200.0 mg/kg/injection, schedule: Q04DX003 (ip), vehicle: Klucel (hydroxypropylcellulose) (HPC)
[12] = dose: 400.0 mg/kg/injection, schedule: Q04DX003 (ip), vehicle: Klucel (hydroxypropylcellulose) (HPC)
[13] = dose: 100.0 mg/kg/injection, schedule: Q01DX001 (ip), vehicle: saline
[14] = dose: 200.0 mg/kg/injection, schedule: Q01DX001 (ip), vehicle: saline
[15] = dose: 200.0 mg/kg/injection, schedule: Q01DX009 (ip), vehicle: saline with Tween-80
[16] = dose: 50.0 mg/kg/injection, schedule: Q04DX003 (ip), vehicle: saline
[17] = dose: 100.0 mg/kg/injection, schedule: Q04DX003 (ip), vehicle: saline
[18] = dose: 100.0 mg/kg/injection, schedule: Q01DX009 (ip), vehicle: Klucel (hydroxypropylcellulose) (HPC)
[19] = dose: 200.0 mg/kg/injection, schedule: Q01DX009 (ip), vehicle: Klucel (hydroxypropylcellulose) (HPC)
[20] = dose: 100.0 mg/kg/injection, schedule: Q01DX001 (ip), vehicle: Klucel (hydroxypropylcellulose) (HPC)
[21] = dose: 200.0 mg/kg/injection, schedule: Q01DX001 (ip), vehicle: Klucel (hydroxypropylcellulose) (HPC)
[22] = dose: 400.0 mg/kg/injection, schedule: Q01DX001 (ip), vehicle: Klucel (hydroxypropylcellulose) (HPC)

Measured: T/C

CCCCCOS(=O)(=O)c1ccc(Cl)c([N+](=O)[O-])c1
inactive: dose: 12.5 mg/kg/injection, schedule: Q01DX009 (ip), vehicle: saline with Tween-80 93 % of control | dose: 25.0 mg/kg/injection, schedule: Q01DX009 (ip), vehicle: saline with Tween-80 87 % of control | dose: 25.0 mg/kg/injection, schedule: Q04DX003 (ip), vehicle: saline with Tween-80 95 % of control | [1] 98 % of control | dose: 50.0 mg/kg/injection, schedule: Q04DX003 (ip), vehicle: saline with Tween-80 90 % of control

Cc1nccc2c(C)c3c(cc12)c1ccccc1n3CCC1CO1 (stereo not given)
inactive: dose: 37.5 mg/kg/injection, schedule: Q04DX003 (ip), vehicle: water 118 % of control | dose: 75.0 mg/kg/injection, schedule: Q04DX003 (ip), vehicle: water 122 % of control | dose: 150.0 mg/kg/injection, schedule: Q04DX003 (ip), vehicle: water 118 % of control

Cc1ccc(N=CNN=C(N)N)cc1
inactive: dose: 120.0 mg/kg/injection, schedule: Q01DX Z (oral), vehicle: methylcellulose (MC) 97 % of control | dose: 240.0 mg/kg/injection, schedule: Q01DX Z (ip), vehicle: methylcellulose (MC) 101 % of control | dose: 240.0 mg/kg/injection, schedule: Q01DX Z (oral), vehicle: methylcellulose (MC) 96 % of control | dose: 360.0 mg/kg/injection, schedule: Q01DX Z (ip), vehicle: methylcellulose (MC) 104 % of control | dose: 480.0 mg/kg/injection, schedule: Q01DX Z (ip), vehicle: methylcellulose (MC) 102 % of control | dose: 480.0 mg/kg/injection, schedule: Q01DX Z (oral), vehicle: methylcellulose (MC) 92 % of control

CSc1ccc2c(c1)N(CCCN(C)C)c1ccccc1S2
inactive: dose: 0.78 mg/kg/injection, schedule: Q04DX003 (ip), vehicle: saline 98 % of control and 99 % of control | dose: 1.56 mg/kg/injection, schedule: Q04DX003 (ip), vehicle: saline 103 % of control and 107 % of control | dose: 3.12 mg/kg/injection, schedule: Q01DX009 (ip), vehicle: saline 103 % of control | dose: 3.12 mg/kg/injection, schedule: Q04DX003 (ip), vehicle: saline 98 % of control and 102 % of control | dose: 6.25 mg/kg/injection, schedule: Q01DX009 (ip), vehicle: saline 120 % of control | dose: 6.25 mg/kg/injection, schedule: Q04DX003 (ip), vehicle: saline 101 % of control and 107 % of control | [2] 122 % of control | dose: 12.5 mg/kg/injection, schedule: Q04DX003 (ip), vehicle: saline 104 % of control | [3] 109 % of control

CC#CC(O)(C(=O)OC1CCN(C)CC1)C(C)CC (stereo not given)
inactive: [1] 92 % of control | [4] 96 % of control | [5] 120 % of control | [6] 102 % of control

COc1cccc(OC)c1OC(=O)Nc1ccccc1C(F)(F)F
inactive: [7] 98 % of control | [8] 98 % of control | [9] 100 % of control

CCOC=Nc1cc(-n2cnc3c(Cl)ncnc32)ccc1C
inactive: dose: 100.0 mg/kg/injection, schedule: Q01DX001 (ip), vehicle: carboxymethylcellulose (CMC) 87 % of control | dose: 200.0 mg/kg/injection, schedule: Q01DX001 (ip), vehicle: carboxymethylcellulose (CMC) 98 % of control | dose: 400.0 mg/kg/injection, schedule: Q01DX001 (ip), vehicle: carboxymethylcellulose (CMC) 96 % of control

CC(O)(C(=O)c1ccccc1)c1ccc(Cl)cc1 (stereo not given)
inactive: [10] 95 % of control | [11] 98 % of control | [12] 101 % of control

CC(=O)c1c(C)[nH]c2ccc(NS(=O)(=O)N(C)C)cc12
inactive: dose: 75.0 mg/kg/injection, schedule: Q04DX003 (ip), vehicle: Klucel (hydroxypropylcellulose) (HPC) 96 % of control | dose: 150.0 mg/kg/injection, schedule: Q04DX003 (ip), vehicle: Klucel (hydroxypropylcellulose) (HPC) 102 % of control | dose: 300.0 mg/kg/injection, schedule: Q04DX003 (ip), vehicle: Klucel (hydroxypropylcellulose) (HPC) 100 % of control

Cc1ccc(N=Nc2c(N)nc(N)[nH]c2=O)cc1C
inactive: [13] 100 % of control | [14] 96 % of control | dose: 400.0 mg/kg/injection, schedule: Q01DX001 (ip), vehicle: saline 96 % of control

CCOC(=O)C1=C(C)NC(C)=C(C(C)=O)C1c1ccnc2ccccc12 (stereo not given)
inactive: [4] 98 % of control | [5] 95 % of control | [15] 102 % of control | [6] 92 % of control | dose: 400.0 mg/kg/injection, schedule: Q01DX009 (ip), vehicle: saline with Tween-80 100 % of control | dose: 400.0 mg/kg/injection, schedule: Q04DX003 (ip), vehicle: saline with Tween-80 100 % of control

Nc1ccc(C(=O)O)cc1
inactive: [10] 96 % of control | [11] 106 % of control | [12] 113 % of control

CCCCC1CCC(N)CC1 (stereo not given)
inactive: [3] 105 % of control | [16] 100 % of control | [17] 105 % of control

CC12CCCCC1=CC(=O)CCC2 (stereo not given)
inactive: [1] 98 % of control | [4] 98 % of control | [15] 98 % of control

CC12CCC3(CC1CCC(OC(=O)c1ccccc1)C2)OCCO3 (stereo not given)
inactive: dose: 100.0 mg/kg/injection, schedule: Q01DX009 (ip), vehicle: other 93 % of control | dose: 100.0 mg/kg/injection, schedule: Q04DX003 (ip), vehicle: other 108 % of control | dose: 200.0 mg/kg/injection, schedule: Q01DX009 (ip), vehicle: other 95 % of control | dose: 200.0 mg/kg/injection, schedule: Q04DX003 (ip), vehicle: other 106 % of control | dose: 400.0 mg/kg/injection, schedule: Q01DX009 (ip), vehicle: other 90 % of control | dose: 400.0 mg/kg/injection, schedule: Q04DX003 (ip), vehicle: other 95 % of control

O=C(Nc1ccc(Cl)c(Cl)c1)c1ccc(C(=O)Nc2ccc(Cl)c(Cl)c2)cc1
inactive: [18] 91 % of control | [19] 92 % of control | dose: 400.0 mg/kg/injection, schedule: Q01DX009 (ip), vehicle: Klucel (hydroxypropylcellulose) (HPC) 86 % of control

c1ccc(C2=NC(c3ccccc3)C(c3ccccc3)N2)cc1 (stereo not given)
inactive: [20] 97 % of control | [21] 94 % of control | [22] 89 % of control

Nc1ncc(CNc2ccc(C(=O)O)cc2)c(N)n1
inactive: [13] 103 % of control | [14] 103 % of control

NS(=O)(=O)c1ccc(Br)cc1
inactive: [3] 106 % of control | [16] 97 % of control | [17] 100 % of control | dose: 150.0 mg/kg/injection, schedule: Q04DX003 (ip), vehicle: saline 105 % of control | dose: 225.0 mg/kg/injection, schedule: Q04DX003 (ip), vehicle: saline 102 % of control | dose: 335.0 mg/kg/injection, schedule: Q04DX003 (ip), vehicle: saline 105 % of control

C=CCOB(OCC=C)OCC=C
inactive: [2] 120 % of control | dose: 25.0 mg/kg/injection, schedule: Q01DX009 (ip), vehicle: saline 101 % of control | [3] 97 % of control | dose: 50.0 mg/kg/injection, schedule: Q01DX009 (ip), vehicle: saline 106 % of control | [16] 103 % of control

CN(C)C/C(=N\O)c1ccc(Cl)cc1
inactive: dose: 50.0 mg/kg/injection, schedule: Q01DX009 (ip), vehicle: Klucel (hydroxypropylcellulose) (HPC) 93 % of control | [13] 97 % of control | [18] 93 % of control | [14] 100 % of control | [19] 100 % of control

Cc1cccc(C(=O)NO)c1O
inactive: dose: 75.0 mg/kg/injection, schedule: Q01DX001 (ip), vehicle: saline 101 % of control | dose: 150.0 mg/kg/injection, schedule: Q01DX001 (ip), vehicle: saline 98 % of control

CCCCCc1c(CCC)[nH]c(=O)[nH]c1=O
inactive: [20] 105 % of control | [21] 106 % of control | [22] 90 % of control

CCOC(=O)/C(C#N)=C/C(C)c1ccccc1 (stereo not given)
inactive: [7] 108 % of control | [8] 104 % of control | [9] 95 % of control
